# Measured values published in US20130065833A1, “ALKYLATED SP-B PEPTOID COMPOUNDS AND RELATED LUNG SURFACTANT COMPOSITIONS” (Northwestern University, priority 2010, published 2013).
# Assay: Pulsating bubble surfactometry (PBS), dynamic-mode cycling at 20 cpm
# Format: physicochemical
# Conditions: 37° C.; for γmax: time point not stated; for % comp (percent SA compression to reach 20 mN m^−1): PBS dynamic-mode, 20 cpm, 100*[(SAmax−SA20)/(SAmax)]
# Procedure: The maintenance of good surfactant activity during the dynamic changes in volume or film surface area at the a/l interface was assessed via bubble pulsation in PBS dynamic-mode. This method permits a simplified evaluation of in vitro dynamic film behavior. (Seurynck, S. L., Brown, N. J., Wu, C. W., Germino, K. W., Kohlmeir, E. K., Ingenito, E. P., Glucksberg, M. R., Barron, A. E., and Johnson, M. (2005) J. Appl. Physiol. 99, 624-633.) The γ-surface area (SA) data loops in FIG. 4B for each lipid-peptoid mixture are one representative pulsation cycle at 20 cycles per minute (cpm) after five minutes at 37° C., with bubble expansion in a clockwise loop direction.
# The absence of low-γ data in some loops results from the inability of the image analysis system to trace the bubble shape in this regime. The highly compressed state of the film, which enables it to reach low γ, often causes significant bubble shape deformation, eliminating the possibility of tracing the bubble to obtain SA or employing the ellipsoidal Laplace equation to calculate γ. […] Visual, real-time bubble inspection confirmed that significant bubble deformation occurred and that γ reached near-zero in these films.
# The lipids DPPC, POPG, and PA were individually dissolved in a chloroform/methanol solution (3/1 [v/v]) to a known concentration (˜2 or 4 mg mL^−1). Single-lipid solutions were then combined by volume at the ratio of DPPC:POPG:PA, 68:22:9 [wt:wt:wt] and to a known total lipid concentration (˜2 mg mL^−1). This well-characterized lipid formulation, the Tanaka Lipids (TL), is considered an adequate mimic of the non-protein (lipid) fraction of LS. The peptides and peptoids were individually dissolved in methanol from a lyophilized powder to a known concentration (1-2 mg mL^−1). For the PBS and LWSB/FM studies, the peptides and peptoids were added to the TL lipid solution at 2.16 mol % (˜10-12 absolute wt %, see Table 1), and the final solution was diluted to ˜1 mg lipid mL^−1. For comparative purposes, the inclusion of peptide/peptoid at 2.16 mol % corresponds to 10 wt % SP-B1-25 relative to the total lipid content (9.1 absolute wt %). Porcine SP-B was dissolved to a known concentration in chloroform/methanol and added to the TL solution at 0.72 mol %, corresponding to roughly 10 wt % of the monomer unit relative to the total lipid content (9.1 absolute wt %). For PBS and LWSB experiments, the standard deviation of the mean (a) was reported.
# A commercial pulsating bubble surfactometry (PBS) instrument (General Transco, Largo, FL), modified with a direct, real-time imaging system, which has been previously described and validated in detail, was utilized to obtain both static-mode and dynamic-mode data. Samples were dried to a pellet from chloroform/methanol 3/1 [v/v] using a DNA 120 speedvac (Thermo Electron, Holbrook, N.Y.). The pellet was resuspended in buffer (150 mM NaCl, 10 mM HEPES, 5 mM CaCl2, pH 6.9) to 1.0 mg lipid mL^−1, with a known final volume of 70 μL. Samples were mixed with a pipette 20 times, sonicated with a Fisher Model 60 probe sonicator for two 15-second spurts, and then mixed again 20 times to form a dispersed suspension. Samples were then loaded into a small plastic sample chamber (General Transco) using a modified leak-free methodology. […]
γmax (PBS dynamic-mode in a TL film) [mN m^−1],% comp (percent SA compression to reach 20 mN m^−1) [%],γmin (PBS dynamic-mode in a TL film),Substance
~35,12,,Noct2-Nspe6-NLys-Nspe2-NLys2-Nspe4-NLys-Nspe2 [peptoid 3]
46,~26,near-zero,Nspe8-NLys*-Nspe2-NLys2-Nspe4-NLys-Nspe2 [peptoid 1]
